Results published in patent US10703749B2, “P2X7 modulators” (Janssen Pharmaceutica NV, priority 2013, dated 2020).

target: P2X7 (Homo sapiens (Human), UniProt Q99572); assay: P2X7 antagonism in human PBMCs (IL-1β release, ELISA); type: cell-based; details: 10 μM test compound, LPS 30 ng/ml + Bz-ATP 0.5 mM
Sequence (Q99572 whole entry): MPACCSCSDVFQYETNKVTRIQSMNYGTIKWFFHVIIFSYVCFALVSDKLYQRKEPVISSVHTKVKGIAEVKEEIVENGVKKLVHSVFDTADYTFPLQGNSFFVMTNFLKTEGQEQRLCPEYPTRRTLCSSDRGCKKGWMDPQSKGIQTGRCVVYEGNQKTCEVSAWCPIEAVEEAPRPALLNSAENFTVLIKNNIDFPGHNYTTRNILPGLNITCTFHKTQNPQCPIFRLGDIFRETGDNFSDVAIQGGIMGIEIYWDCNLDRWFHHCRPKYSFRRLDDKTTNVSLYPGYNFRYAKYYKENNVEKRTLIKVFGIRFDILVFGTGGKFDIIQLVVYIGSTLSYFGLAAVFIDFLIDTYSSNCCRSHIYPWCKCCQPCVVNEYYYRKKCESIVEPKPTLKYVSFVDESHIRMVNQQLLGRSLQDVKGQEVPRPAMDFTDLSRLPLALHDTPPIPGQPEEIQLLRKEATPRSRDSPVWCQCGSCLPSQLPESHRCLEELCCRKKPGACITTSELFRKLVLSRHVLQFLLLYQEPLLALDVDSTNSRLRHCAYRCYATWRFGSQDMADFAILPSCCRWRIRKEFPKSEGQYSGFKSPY
Procedure: Human blood was collected using a blood donor program. PBMCs were isolated from blood using a Ficoll density gradient technique. Briefly, blood was laid on Ficoll solution and centrifuged at RT for 20 minutes at 2000 rpm. The buffy layer (between red blood cells and plasma) was carefully collected by aspiration, washed with PBS and centrifuged again at 1500 rpm for 15 minutes. The resulting cell pellet was washed and plated on 96 well-plates for experiments. For the Mouse/Human Whole Blood experiments, 150 μl of either mouse or human blood was platted on 96 well-plates. Lipopolysaccharide (LPS) (30 ng/ml) was added to each well and incubated for 1 hour. Test compounds were then added and incubated for 30 minutes. The P2X7 agonist, 2′(3′)-O-(4-benzoylbenzoyl) adenosine 5′-triphosphate (Bz-ATP) was then added at a final concentration of 0.5 mM (PBMC) or 1 mM (blood). Cells were incubated for an additional 1.5 hours. At that point, supernatant was collected and stored for IL-1β assay using manufacturer's protocol for enzyme-linked immunosorbent assay (ELISA). Data was expressed as percent control, where control is defined as the difference in IL-1β release in LPS+Bz-ATP samples and LPS only samples. Data was plotted as response (% control) versus concentration to generate IC50 values.

| Compound | PBMC 10 μM (% control) |
| --- | --- |
| Cc1c(C(=O)N2Cc3nnn(C4=NN=CC4)c3CC2C)cccc1C(F)(F)F (stereo not shown) [Example 154, (6-methyl-1-(1H-pyrazol-3-yl)-6,7-dihydro-1H-[1,2,3]triazolo[4,5-c]pyridin-5(4H)-yl)(2-methyl-3-(trifluoromethyl)phenyl)methanone] | −0.6 % control |
| Cc1cc(C)nc(-n2nnc3c2CCN(C(=O)c2cccc(C(F)(F)F)c2Cl)C3C)n1 (stereo not shown) [Example 253, (2-Chloro-3-(trifluoromethyl)phenyl)(1-(4,6-dimethylpyrimidin-2-yl)-4-methyl-6,7-dihydro-1H-[1,2,3]triazolo[4,5-c]pyridin-5(4H)-yl)methanone] | −2.6 % control |
| CC1c2nn(COCC[Si](C)(C)C)c(-c3ncc(F)cn3)c2CCN1C(=O)c1cccc(C(F)(F)F)c1Cl (stereo not shown) [Example 303, (2-chloro-3-(trifluoromethyl)phenyl)(3-(5-fluoropyrimidin-2-yl)-7-methyl-2-((2-(trimethylsilyl)ethoxy)methyl)-4,5-dihydro-2H-pyrazolo[3,4-c]pyridin-6(7H)-yl)methanone] | −1.6 % control |
| Cc1nc2c(n1-c1ccccc1)CCN(C(=O)c1cccc(Cl)c1Cl)C2 [Example 331, (2,3-dichlorophenyl)(2-methyl-1-phenyl-6,7-dihydro-1H-imidazo[4,5-c]pyridin-5 (4H)-yl)methanone] | −11.0 % control |
